# Laboratory results reported in patent US20150037832A1, “METHODS OF FACILITATING THE BIOCONVERSION OF CRUDE BIODIESEL-DERIVED GLYCEROL BY MICROORGANISMS” (priority 2011, published 2015).
# Several values for one entry are separate records, joined by “and”; a condition that tells them apart may be missing. Identical values can stand only once. Like-named read-outs stand apart in the source and are kept apart here.
# Experiments:
# [1] = tested on: Clostridium pasteurianum ATCC 6013; assay: Growth (optical density, μmax) and pH profiles of batch cultures; type: cell-based; settings: for maximum specific growth rate, μmax: exponential log phase, 20 g/L glycerol and/or 10 g/L sugar; for effect on maximum optical density: 2 g/L sodium salt in 25 g/L pure glycerol
# Method: (§1) Pre-cultures for glycerol utilization experiments were grown in RCM. The growth was monitored using optical density (λ=600 nm) and the cultures were used as inoculum once they reached the mid-exponential phase of growth. 100 mL of Biebl medium with appropriate carbon sources was inoculated with 10% inoculum and the contents were split equally into three in a 75 mL culture flask. All experiments were carried out in batch cultures and in triplicates. The cultures were monitored for growth, substrate utilization and product formation as mentioned earlier.
# The co-fermentation of sugars was studied using hexose (dextrose) and pentose (D-xylose and L-arabinose) with 20 g/L of pure glycerol at a concentration of 10 g/L of the sugars, maintaining a 2:1 ratio of glycerol and sugars. Cells grown on glycerol or sugar alone were used as controls. […] Acetate and butyrate were studied at concentrations of 2 g/L with an initial glycerol concentration of 25 g/L of pure glycerol. Biotin was supplemented in the media at 0.8 mg/L with an initial concentration of 25 g/L of pure glycerol.
# [2] = tested on: Clostridium pasteurianum ATCC 6013; assay: Product yields and substrate utilization of fermentation (HPLC); settings: for effect of addition on butanol / product formation: added to glycerol fermentation; for 1,3-PDO yield / conversion: sole carbon source
# Method: Freeze dried pure cultures of C. pasteurianum were revived using nutrient rich reinforced clostridal growth media (RCM) and glycerol stock cultures were prepared for future use. […] Pre-culture for glycerol utilization experiments were grown in RCM. The growth was monitored using optical density and the cultures were used as inoculum once they reached mid-exponential phase of growth. The growth experiments were conducted in 75 mL culture flasks containing 40 mL of the media and 5 mL of inoculum. Defined media was used for glycerol utilization. Unless otherwise specified purified glycerol or biodiesel derived crude glycerol were used as the sole carbon source. All experiments were conducted in an anaerobic chamber (95% N2 and 5% H2) at a temperature of 37° C. to ensure oxygen-free conditions.
# as §1
# The co-fermentation of sugars was studied using hexose (dextrose) and pentose (D-xylose and L-arabinose) with 20 g/L of pure glycerol at a concentration of 10 g/L of the sugars, maintaining a 2:1 ratio of glycerol and sugars. Cells grown on glycerol or sugar alone were used as controls.
# [3] = tested on: Clostridium pasteurianum ATCC 6013; assay: Effect of impurities on glycerol fermentation; type: cell-based; settings: for growth and product yield: salt at 2.5, 5, 7.5 and 10% (w/w) of initial glycerol; for growth and product yield / substrate utilization: 25 g/L pure glycerol; for substrate utilization: fatty acid sodium salt at 5%, 10% and 15% (w/w) of initial substrate
# Method: Defined media was used for glycerol utilization.
# To study the effect of impurities in crude glycerol, various concentrations of each impurity were added to the media containing 25 g/L pure glycerol. Methanol was added at 2.5 g/L and 5 g/L. Potassium chloride and potassium sulfate were added at 2.5, 5, 7.5 and 10% (w/w) of the initial glycerol concentration. The fatty acids were added in the form of sodium salts of steric acid, oleic acid and linoleic acid at 5, 10 and 15% (w/w) (of initial substrate conc.). The media containing 25 g/L of pure glycerol was used as the control. The effects of fatty acids were also studied by partially purifying the crude glycerol by precipitating the fatty acids using concentrated hydrochloric acid. The crude glycerol was diluted in deionized water at a ratio of 1:3 and hydrochloric acid was added to lower pH to between 2 and 3. At this pH the fatty acids precipitated and were removed by centrifugation at 5000 rpm for 15 minutes. The precipitated fatty acids were later analyzed using NMR by dissolving them in d-DMSO.
# [4] = tested on: C. acetobutylicum; settings: butyrate addition at 2 g/L, reported; cited from earlier work
# [5] = tested on: Clostridium pasteurianum ATCC 6013
# Method: The cell membrane was extracted using dichloromethane/methanol mixtures. The membrane extracted in dichloromethane was separated by evaporating the solvents under a gentle nitrogen stream. This dry film of the membrane was used for further analysis.
# The dry film of the membrane was dissolved in deuterated chloroform for NMR analysis. Synthetic lipids such as Diaplmitoylphosphotidylcholine (DPPC) and Dioleylphosphotidylcholine (DOPC) were used as standards for NMR analysis. The dry films of the membrane lipids were labeled with DPH (500:1) and made into liposomes for analyzing the stability of the membrane by studying the fluorescence anisotropy using a Perkin-Elmer LS50B.
# [6] = L-arabinose added to glycerol, vs glycerol alone
# [7] = endogenously produced butanol, defined media, varied glycerol concentration
# [8] = exogenous butanol 2 g/L to 20 g/L, defined media with 50 g/L glucose and RCM
compound,measurement,setting,value
O=C[C@H](O)[C@@H](O)[C@H](O)CO [D-xylose],"maximum specific growth rate, μmax",[1],0.794 ± 0.390 day⁻¹
same,"acetate, 1,3-PDO and ethanol as share of the overall products",[2]; D-xylose as sole carbon source,88%
same,product formation,[2]; D-xylose as sole carbon source,0.78 g/g
same,effect of addition on butanol / product formation,[2],did not result in an increase in the formation of any of the products
same,utilization of D-xylose,"[2]; addition of D-xylose to glycerol fermentation, 2:1",25±16%
same,D-xylose left unconsumed in the media,[2]; co-fermentation of glycerol with xylose,more than 90%
"OCC(O)CO [Glycerol, glycerol]","maximum specific growth rate, μmax",[1],1.562 ± 0.118 day⁻¹
same,butanol yield,[2]; control experiment with glycerol,22 % (g/g)
same,"1,3-PDO yield / conversion",[2]; control,20 % (g/g)
O=C[C@H](O)[C@@H](O)[C@@H](O)CO [L-arabinose],"maximum specific growth rate, μmax",[1],0.933 ± 0.054 day⁻¹
same,ethanol yield,[2]; L-arabinose added to glycerol,0.10 g/g
same,"increase of 1,3-PDO yield",[2]; [6],65%
same,increase of ethanol yield,[2]; [6],5 fold
same,"1,3-PDO and ethanol as share of overall products",[2]; L-arabinose as carbon source,85%
same,effect of addition on butanol / product formation,[2],does not affect the yield of butanol
same,"ratio of butanol/1,3-PDO",[2]; addition of L-arabinose to glycerol,0.64
same,"1,3-PDO maximum yield","[2]; control, L-arabinose sole carbon source",36.5 % (g/g)
same,"1,3-PDO yield / conversion",[2]; control,28 % (g/g)
same,"Ethanol and 1,3-PDO as share of the products yielded",[2]; cultures on arabinose,~86 % (mol/mol)
same,"1,3-PDO yield","[2]; sugar 10 g/L added as co-substrate to 20 g/L glycerol, with respect to glycerol",0.33 g/g
[Cl-].[K+] [Potassium chloride],growth and product yield,[3],no detrimental effect on growth and product yield
"CC(=O)[O-].[Na+] [acetate, sodium acetate]",effect on maximum optical density,[1],small increase in the maximum optical density
same,"decrease in 1,3-PDO production",[2],33%
same,increase in butanol formation,[2],~25% and 23%
O=C(O)CCCC[C@@H]1SC[C@@H]2NC(=O)N[C@@H]21 [biotin],increase in butanol formation,"[2]; supplement (acetate 2 g/L, biotin 0.8 mg/L) in 25 g/L pure glycerol, vs control",18% and ~25%
"CCCC(=O)[O-].[Na+] [butyrate, sodium butyrate]",effect on maximum optical density,[1],slightly lower maximum optical density
same,lowering of the maximum optical density,[1]; butyrate 2 g/L in 25 g/L pure glycerol,20%
same,increase of butanol production,[4],1.6 folds
same,effect of addition on butanol / product formation,[2],did not increase butanol production
CO [methanol],growth or product formation during the fermentation of glycerol,[3]; methanol at 2.5 g/l and 5 g/L in media with 25 g/L pure glycerol,no reduction in growth or product formation
O=S(=O)([O-])[O-].[K+].[K+] [potassium sulfate],growth and product yield,[3],no detrimental effect on growth and product yield
CCCCC/C=C\C/C=C\CCCCCCCC(=O)[O-].[Na+] [sodium linoleate],substrate utilization,[3],completely inhibited
CCCCCCCC/C=C\CCCCCCCC(=O)[O-].[Na+] [sodium oleate],substrate utilization,[3],not affected
CCCCCCCCCCCCCCCCCC(=O)[O-].[Na+] [sodium stearate],substrate utilization,[3],not affected
butanol,anisotropy of membrane,[5]; [7],corresponding increase in anisotropy
same,degree of unsaturation of membrane fatty acids,[5]; [7],a decrease in the degree of unsaturation
same,anisotropy of membrane,[5]; [8],found to decrease
same,degree of unsaturation of membrane fatty acids,[5]; [8],observed to increase
